Assay results taken from ChEMBL document CHEMBL1201862, “PubChem BioAssay data set” (2004).
Calls of active or inactive are those of the source.

Experiments:
[1] = Luminescence Cell-Based Dose Retest to Confirm Inhibitors of Cancer Stem Cells. [Related pubchem assays (depositor defined):AID2717, AID2721]; type: functional; details: Homo sapiens
CHO = CHO cell viability loss, potency – luminescence, cytotoxicity control for TLR9-MyD88 binding inhibitor project, dose response (AID 588339); type: functional, cell-based, hamster; details: Cricetulus griseus;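 further: CHO cells stably coexpressing TLR9 and MyD88 fusions from primary screen; compound exposure lasted 48 hours before viability readout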
Beta Lactamase = Beta Lactamase (Pseudomonas aeruginosa, UniProt Q932Y6); experiment: BLA reporter interference, concentration series – BLA reporter cells, FRET fluorescence, artefact control for TLR9-MyD88 binding inhibitor project, dose response (AID 588341); type: cell-based;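 further: cell based assay in CHO-K1 cells stably expressing beta-lactamase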
[2] = target: Sphingosine 1-phosphate receptor 2 (Homo sapiens, UniProt O95136); experiment: Dose Response Cell Based Assay for Antagonists of the S1P2 Receptor. [Related pubchem assays: 856, 736 ]; type: functional
BJ [3] = experiment: BJ-TERT fibroblast viability loss – cell-based, RAS-independent, luminescence, dose response (AID 1933); type: functional; details: Homo sapiens
BJ [4] = experiment: cells; type: functional, cell-based; details: Homo sapiens
BJ [5] = experiment: BJ-TERT-LT-ST fibroblast viability loss – cell-based, RAS-independent, luminescence, dose response (AID 1935); type: functional; details: Homo sapiens;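 further: BJ fibroblasts immortalized with TERT plus LT and ST oncogenes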
[6] = DRD fibroblast viability loss – cell-based, non-viral oncogenic, luminescence, dose response (AID 1934); type: functional; details: Homo sapiens
[7] = target: T1, Mannose-6-phosphate isomerase (Homo sapiens, UniProt P34949); experiment: MPI inhibition at elevated mannose 6-phosphate – biochemical, fluorescence intensity, high mannose 6-phosphate, primary screen (AID 1220)
T1 sequence (P34949 whole entry): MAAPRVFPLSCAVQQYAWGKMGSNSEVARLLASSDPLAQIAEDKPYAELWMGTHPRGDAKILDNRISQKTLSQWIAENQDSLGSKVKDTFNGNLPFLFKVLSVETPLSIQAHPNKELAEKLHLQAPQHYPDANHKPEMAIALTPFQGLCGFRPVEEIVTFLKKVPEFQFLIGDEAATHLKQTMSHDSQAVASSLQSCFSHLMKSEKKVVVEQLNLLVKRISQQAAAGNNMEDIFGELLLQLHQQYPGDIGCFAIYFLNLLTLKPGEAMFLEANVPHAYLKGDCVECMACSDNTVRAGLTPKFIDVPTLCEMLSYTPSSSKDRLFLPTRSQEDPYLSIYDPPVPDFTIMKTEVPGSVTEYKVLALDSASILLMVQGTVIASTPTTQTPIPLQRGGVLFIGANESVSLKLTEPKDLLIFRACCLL

[8] = target: DNA dC->dU-editing enzyme APOBEC-3A (Homo sapiens, UniProt P31941); experiment: A3A deaminase inhibition for selectivity – biochemical, dose response (AID 504722); type: functional
[9] = target: DNA dC->dU-editing enzyme APOBEC-3G (Homo sapiens, UniProt Q9HC16); experiment: Dose Response confirmation of small molecule APOBEC3G DNA Deaminase Inhibitors via a fluorescence-based single-stranded DNA deaminase assay. [Related pubchem assays (depositor defined):AID493012, AID493028]; type: functional
BJ [10] = experiment: growth inhibition of engineered Ras-driven BJ cells – cell-based, alamar blue fluorescence, cherrypicked samples, dose response (AID 2631); type: functional; details: Homo sapiens;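 further: confirmatory dose-response assay in RAS-dependent BJ fibroblasts engineered with TERT, LT and ST, with cytotoxicity read by fluorescence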
[11] = target: T2, RNA-binding protein pos-1 (Caenorhabditis elegans, UniProt G5EF15); experiment: disruptors of C. elegans POS-1 RNA interaction – biochemical, fluorescence polarization, dose response (AID 1964);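 further: purified POS-1 fused to maltose binding protein made in E. coli; potency of compounds blocking POS-1 binding to fluorescent RNA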
T2 sequence (G5EF15 whole entry): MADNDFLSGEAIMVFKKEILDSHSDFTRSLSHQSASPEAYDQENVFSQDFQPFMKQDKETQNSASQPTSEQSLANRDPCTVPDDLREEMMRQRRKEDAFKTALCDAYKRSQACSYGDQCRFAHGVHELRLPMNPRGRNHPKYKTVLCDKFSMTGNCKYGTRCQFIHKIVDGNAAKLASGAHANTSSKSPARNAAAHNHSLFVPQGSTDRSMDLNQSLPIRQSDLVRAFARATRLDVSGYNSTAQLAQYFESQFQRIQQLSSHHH

[12] = Luminescence Cell-Based Dose Confirmation HTS to Identify Activators of 5'UTR Stem-Loop Driven Alpha-Synuclein mRNA Translation in H4 Neuroglioblastoma Cells. [Related pubchem assays: 1829 (Project Summary), 1814 (Primary HTS)]; type: functional
[13] = Luminescence Cell-Based Dose Response HTS to Identify Activators of Luciferase Translation or Activity in H4 […] Cells. [Related pubchem assays: 1829 (Project Summary), 1814 (Primary HTS)]; type: functional
H4 = experiment: Luminescence Cell-Based Dose Response HTS to Identify Activators of 5'UTR Stem-Loop Driven Prion Protein mRNA Translation in H4 Neuroglioblastoma Cells. [Related pubchem assays: 1829 (Project Summary), 1814 (Primary HTS)]; type: functional; details: Homo sapiens
[14] = target: T3, Zinc finger protein mex-5 (Caenorhabditis elegans, UniProt Q9XUB2); experiment: potency of MEX-5 RNA-binding blockers – biochemical, C. elegans, fluorescence polarization, dose response (AID 1960)
T3 sequence (Q9XUB2 whole entry): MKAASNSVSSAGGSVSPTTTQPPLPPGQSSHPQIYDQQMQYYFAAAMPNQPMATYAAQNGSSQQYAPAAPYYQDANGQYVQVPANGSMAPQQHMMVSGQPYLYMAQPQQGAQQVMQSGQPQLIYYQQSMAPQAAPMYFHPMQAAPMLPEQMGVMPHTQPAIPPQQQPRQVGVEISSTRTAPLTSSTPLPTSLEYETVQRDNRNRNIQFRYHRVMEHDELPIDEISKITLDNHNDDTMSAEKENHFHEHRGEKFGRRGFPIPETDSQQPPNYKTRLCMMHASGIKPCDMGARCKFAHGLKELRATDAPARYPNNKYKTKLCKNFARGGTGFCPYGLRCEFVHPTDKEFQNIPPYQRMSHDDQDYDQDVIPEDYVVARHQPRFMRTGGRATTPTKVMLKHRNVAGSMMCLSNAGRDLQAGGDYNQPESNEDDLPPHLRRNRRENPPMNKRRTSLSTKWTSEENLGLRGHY

Insulin-degrading enzyme [15] = target: T4, Insulin-degrading enzyme (Homo sapiens, UniProt P14735); experiment: recombinant IDE activation, cell-free – biochemical, fluorescence polarization, counter-screen for IDE activator project, dose response (AID 588681)
T4 sequence (P14735 whole entry): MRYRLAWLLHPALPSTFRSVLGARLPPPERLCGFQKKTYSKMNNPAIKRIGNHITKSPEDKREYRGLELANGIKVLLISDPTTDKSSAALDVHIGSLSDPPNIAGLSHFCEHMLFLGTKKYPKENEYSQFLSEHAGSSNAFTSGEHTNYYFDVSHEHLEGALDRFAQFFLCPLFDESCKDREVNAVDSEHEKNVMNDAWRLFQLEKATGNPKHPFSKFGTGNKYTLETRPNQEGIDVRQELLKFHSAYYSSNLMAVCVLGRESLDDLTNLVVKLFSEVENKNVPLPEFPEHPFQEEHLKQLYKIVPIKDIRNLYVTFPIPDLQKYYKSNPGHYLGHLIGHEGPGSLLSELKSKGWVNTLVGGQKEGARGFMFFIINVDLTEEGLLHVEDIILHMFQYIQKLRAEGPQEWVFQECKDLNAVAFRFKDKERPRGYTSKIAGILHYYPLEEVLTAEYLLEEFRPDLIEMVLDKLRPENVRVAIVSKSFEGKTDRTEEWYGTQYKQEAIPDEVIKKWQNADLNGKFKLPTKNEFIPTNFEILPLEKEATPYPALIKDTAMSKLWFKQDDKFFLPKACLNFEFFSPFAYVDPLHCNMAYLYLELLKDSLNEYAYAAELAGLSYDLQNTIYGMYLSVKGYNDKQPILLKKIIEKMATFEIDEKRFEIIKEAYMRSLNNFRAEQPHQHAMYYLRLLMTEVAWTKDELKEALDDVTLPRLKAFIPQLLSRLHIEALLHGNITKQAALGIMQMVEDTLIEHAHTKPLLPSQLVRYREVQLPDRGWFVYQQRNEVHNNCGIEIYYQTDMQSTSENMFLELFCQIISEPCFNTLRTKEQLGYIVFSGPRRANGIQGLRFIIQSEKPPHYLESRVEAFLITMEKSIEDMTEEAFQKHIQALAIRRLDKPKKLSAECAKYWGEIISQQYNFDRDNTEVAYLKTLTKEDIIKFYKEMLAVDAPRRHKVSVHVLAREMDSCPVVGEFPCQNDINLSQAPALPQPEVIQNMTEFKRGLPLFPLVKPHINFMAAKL

Insulin-degrading enzyme [16] = target: T4, Insulin-degrading enzyme; experiment: cellular IDE activation of Abeta substrate cleavage – fluorescence polarization, HEK cells, dose response (AID 588439); type: functional, cell-based
INS1 = experiment: INS-1E survival protection against cytokine death – cell-based, luminescence, retest, dose response (AID 449756); type: functional; details: Rattus norvegicus;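 further: cell death triggered by IL-1 beta plus TNF-alpha plus IFN-gamma mixture; protective hits raise ATP signal compared with cytokine alone wells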
HEK293 [17] = experiment: membrane integrity loss in HEK cells – cell-based, fluorescence, cytotoxicity control for IDE activator project, dose response (AID 588440); type: functional; details: Homo sapiens;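 further: cytotoxicity by LDH release measuring loss of membrane integrity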
HEK293 [18] = experiment: optical interference in Abeta FP readout, dose response, artefact control for IDE activator project, biochemical, fluorescence polarization (AID 588442); type: functional, cell-based; details: Homo sapiens
Protein Rev = target: T5, Protein Rev (Human immunodeficiency virus type 1 group M subtype B (isolate HXB2)(HIV-1), UniProt P04618); experiment: blockers of HIV Rev/RRE RNA complex – biochemical, fluorescence polarization, HIV-1, dose response (AID 434976); design: species or system Human immunodeficiency virus 1
T5 sequence (P04618 whole entry): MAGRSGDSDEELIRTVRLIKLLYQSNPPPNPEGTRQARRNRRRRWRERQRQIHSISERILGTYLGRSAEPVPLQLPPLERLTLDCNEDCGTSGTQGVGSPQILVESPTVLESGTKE

[19] = target: T6, Female germline-specific tumor suppressor gld-1 (Caenorhabditis elegans, UniProt Q17339); experiment: blockers of GLD-1/TGE RNA complex formation – biochemical, fluorescence polarization, C. elegans, dose response (AID 2802);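 further: fluorescence polarization of labeled TGE RNA bound by purified gld-1 protein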
T6 sequence (Q17339 whole entry): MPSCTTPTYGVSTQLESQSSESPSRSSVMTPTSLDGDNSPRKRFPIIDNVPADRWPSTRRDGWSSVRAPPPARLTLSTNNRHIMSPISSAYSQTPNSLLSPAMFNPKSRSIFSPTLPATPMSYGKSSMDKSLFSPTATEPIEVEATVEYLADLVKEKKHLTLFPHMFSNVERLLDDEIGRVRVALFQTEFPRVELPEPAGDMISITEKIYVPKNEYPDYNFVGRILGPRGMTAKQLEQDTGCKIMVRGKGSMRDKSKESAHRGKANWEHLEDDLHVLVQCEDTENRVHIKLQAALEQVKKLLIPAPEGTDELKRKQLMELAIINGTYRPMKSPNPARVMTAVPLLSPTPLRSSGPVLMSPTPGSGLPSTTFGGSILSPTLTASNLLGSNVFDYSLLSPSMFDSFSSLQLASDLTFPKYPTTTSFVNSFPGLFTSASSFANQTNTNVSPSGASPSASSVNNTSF

Cytochrome P450 3A4 = Cytochrome P450 3A4 (Homo sapiens, UniProt P08684);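 further: CYP3A4 tested as one member of a cytochrome P450 panel screen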
[20] = target: Latent membrane protein 1 (Human herpesvirus 4 (strain B95-8), UniProt P03230); experiment: LMP1 TES1 pathway selectivity over dsRED control – imaging, HEK293T, dual-color eGFP/dsRED, cherry-picks, selectivity assay for LMP1 NF-kB inhibitor project, dose response (AID 588398); type: functional, cell-based
HEK293 [21] = experiment: EBV LMP1 TES2 canonical NF-kB signalling blockers – cell-based, HEK293, luciferase, cherry-pick, dose response (AID 588343); type: functional; details: Homo sapiens

Latent membrane protein 1, sequence (P03230 whole entry): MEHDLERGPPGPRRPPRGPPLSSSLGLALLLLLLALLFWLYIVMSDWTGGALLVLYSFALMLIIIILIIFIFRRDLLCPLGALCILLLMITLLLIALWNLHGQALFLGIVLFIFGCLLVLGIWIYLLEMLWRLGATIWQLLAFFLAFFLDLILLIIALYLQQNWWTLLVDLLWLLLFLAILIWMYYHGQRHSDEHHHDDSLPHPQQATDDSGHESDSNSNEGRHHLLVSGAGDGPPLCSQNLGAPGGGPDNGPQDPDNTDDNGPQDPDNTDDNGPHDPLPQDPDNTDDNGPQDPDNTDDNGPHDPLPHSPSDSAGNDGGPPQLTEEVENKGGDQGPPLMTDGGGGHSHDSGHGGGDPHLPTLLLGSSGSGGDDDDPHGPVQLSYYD
Beta Lactamase, sequence (Q932Y6 whole entry): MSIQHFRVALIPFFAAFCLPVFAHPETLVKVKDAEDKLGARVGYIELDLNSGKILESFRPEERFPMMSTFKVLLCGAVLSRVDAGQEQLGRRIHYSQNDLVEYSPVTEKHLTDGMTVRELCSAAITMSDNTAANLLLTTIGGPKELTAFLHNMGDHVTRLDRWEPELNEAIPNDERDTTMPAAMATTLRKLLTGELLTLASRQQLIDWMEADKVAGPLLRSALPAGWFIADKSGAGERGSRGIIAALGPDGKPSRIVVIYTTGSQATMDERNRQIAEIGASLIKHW
DNA dC->dU-editing enzyme APOBEC-3A, sequence (P31941 whole entry): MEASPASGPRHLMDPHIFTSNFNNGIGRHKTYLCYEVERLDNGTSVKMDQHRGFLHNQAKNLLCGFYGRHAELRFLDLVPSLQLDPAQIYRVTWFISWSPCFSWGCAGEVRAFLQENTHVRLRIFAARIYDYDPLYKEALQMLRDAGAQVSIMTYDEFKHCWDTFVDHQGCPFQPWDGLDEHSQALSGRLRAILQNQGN
Cytochrome P450 3A4, sequence (P08684 whole entry): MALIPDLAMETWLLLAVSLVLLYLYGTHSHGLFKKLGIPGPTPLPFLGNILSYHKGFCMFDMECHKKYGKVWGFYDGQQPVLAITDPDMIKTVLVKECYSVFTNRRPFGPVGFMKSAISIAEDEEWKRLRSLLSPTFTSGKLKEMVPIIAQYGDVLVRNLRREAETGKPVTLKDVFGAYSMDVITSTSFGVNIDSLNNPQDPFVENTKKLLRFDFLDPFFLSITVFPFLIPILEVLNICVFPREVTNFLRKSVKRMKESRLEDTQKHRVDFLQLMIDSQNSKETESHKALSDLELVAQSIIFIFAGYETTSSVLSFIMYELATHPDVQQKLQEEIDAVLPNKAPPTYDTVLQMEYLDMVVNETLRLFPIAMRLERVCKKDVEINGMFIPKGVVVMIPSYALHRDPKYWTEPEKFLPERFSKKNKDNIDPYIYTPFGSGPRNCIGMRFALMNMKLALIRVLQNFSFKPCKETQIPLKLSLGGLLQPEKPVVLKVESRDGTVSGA
DNA dC->dU-editing enzyme APOBEC-3G, sequence (Q9HC16 whole entry): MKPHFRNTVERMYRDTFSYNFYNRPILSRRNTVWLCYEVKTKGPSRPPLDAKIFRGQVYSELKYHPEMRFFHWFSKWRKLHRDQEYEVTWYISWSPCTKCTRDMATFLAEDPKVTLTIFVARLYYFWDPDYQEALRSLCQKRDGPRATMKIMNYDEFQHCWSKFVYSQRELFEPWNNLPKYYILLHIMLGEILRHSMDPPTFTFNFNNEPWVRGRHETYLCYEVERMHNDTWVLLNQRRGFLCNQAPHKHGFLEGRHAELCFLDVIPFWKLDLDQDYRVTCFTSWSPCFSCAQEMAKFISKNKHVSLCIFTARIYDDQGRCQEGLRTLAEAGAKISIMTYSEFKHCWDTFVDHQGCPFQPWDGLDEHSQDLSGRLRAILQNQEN
Sphingosine 1-phosphate receptor 2, sequence (O95136 whole entry): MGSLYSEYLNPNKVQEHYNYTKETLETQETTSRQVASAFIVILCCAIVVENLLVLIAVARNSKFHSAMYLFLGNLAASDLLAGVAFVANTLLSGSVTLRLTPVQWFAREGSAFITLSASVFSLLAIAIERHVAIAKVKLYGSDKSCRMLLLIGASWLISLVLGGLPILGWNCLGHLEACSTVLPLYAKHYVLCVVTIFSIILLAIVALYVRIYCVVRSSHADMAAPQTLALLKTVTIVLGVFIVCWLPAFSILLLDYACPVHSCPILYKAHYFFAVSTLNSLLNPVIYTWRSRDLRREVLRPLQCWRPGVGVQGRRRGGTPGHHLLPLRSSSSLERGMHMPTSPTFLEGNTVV

CCC(C)Sc1ccc(-c2nc3cnccn3c2NC2CCCCC2)cc1 (stereo not given)
AC50 [1]: 3.63 µM (active) | IC50 (CHO): 21.4 µM (inactive) | IC50 (Beta Lactamase): 3.68 µM (active)

CC1=C/C(=N\OS(=O)(=O)c2ccccc2)C=CC1=O
IC50 [2]: 5.98 µM (active) | EC50 (BJ [3]): 2.56 µM (active) | EC50 (BJ [4]): 3.33 µM (active) | EC50 (BJ [5]): 4.43 µM (inconclusive) | EC50 [6]: 6.19 µM (active) | IC50 [7]: 2.71 µM (active) | IC50 [8]: > 100 µM (inactive) | IC50 [9]: 7.43 µM (active) | EC50 (BJ [10]): 0.542 µM (inconclusive)

Cc1ccc(NNC2=C3N=NN=C3C=CC2=O)cc1
EC50 [11]: 22.4 µM (active) | EC50 [12]: 0.399 µM (active) | EC50 [13]: 50.3 µM (active) | EC50 (H4): > 120 µM (not active) | EC50 [14]: 2.99 µM (active) | EC50 (Insulin-degrading enzyme [15]): 1.32 µM (active) | EC50 (Insulin-degrading enzyme [16]): 0.891 µM (active) | AC50 (INS1): 5.05 µM (active) | IC50 (HEK293 [17]): > 89.3 µM (inactive) | EC50 (HEK293 [18]): 0.659 µM (active)

Cc1ccc(S(=O)(=O)N[C@H](C(=O)Oc2ccc3c(C(F)(F)F)cc(=O)oc3c2)c2ccccc2)cc1
IC50 (Protein Rev): 26.9 µM (not active) | IC50 [19]: 3.89 µM (active) | IC50 (CHO): > 49.7 µM (inactive) | IC50 (Beta Lactamase): 3.73 µM (active) | AC50 (Cytochrome P450 3A4): 25.1 µM (inconclusive)

COc1cccc(-c2nc(NCc3ccccc3)c3ccccc3n2)c1O
AC50 [20]: 91 µM (active)

Cc1ccc(S(=O)(=O)NC(CC(C)C)C(=O)NCC(c2ccco2)N2CCCCC2)cc1 (stereo not given)
AC50 (HEK293 [21]): 1.8 µM (active) | AC50 [20]: 24.5 µM (active)
